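Grown in 96-well plates, cells were treated for 48 hours with each compound at five concentrations. Insufficient inhibition: endpoint recorded as highest concentration tested. GI50 marks 50% less growth. TGI: total growth inhibition.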
Tests used:
Test in all cases: NCI-60 cell line screen, 48 h
[1] = tested on: A549 NSCLC
[2] = tested on: EKVX NSCLC
[3] = tested on: HCC-2998 colon
[4] = tested on: HCT-116 colon
[5] = tested on: HT29 colon
[6] = tested on: LOX IMVI melanoma
[7] = tested on: MCF7 breast
[8] = tested on: MOLT-4 leukemia
[9] = tested on: NCI/ADR-RES ovarian
[10] = tested on: RPMI-8226 leukemia

## CCCCC(=O)N/N=C/c1c(O)ccc2ccccc12
[1]
  GI50: 4.47 µM
  TGI: > 92.1 µM
[2]
  GI50: 1.75 µM
  TGI: 7.92 µM
[3]
  GI50: 3.88 µM
  TGI: > 100 µM
[4]
  GI50: 1.32 µM
  TGI: > 29.6 µM
[5]
  GI50: 27.5 µM
  TGI: > 100 µM
[6]
  GI50: 1.15 µM
  TGI: > 31.8 µM
[7]
  GI50: 2.09 µM
  TGI: 15.8 µM
[8]
  GI50: 0.349 µM
[9]
  GI50: 1.68 µM
  TGI: > 30.2 µM
[10]
  GI50: 0.247 µM
  TGI: 1.57 µM

From PubChem BioAssay (NCI)
